Experimental data reported in patent US12583873B2, “Amino acid mineral complex having immunopotentiating activity and composition for foods, pharmaceuticals, or feeds comprising same” (priority 2018, dated 2026).
Where “and” joins values, the source holds several entries; their conditions need not be identical. Equal entries are not always repeated. Entries after “also recorded” stand apart in the source; their conditions may differ. Where two headings read alike, the source gives them in different places.

Key:
[1] = pig, in vivo
[2] = tested on: immunoglobulin (IgG) in serum; conditions: pig, in vivo
[3] = tested on: Foot-and-mouth disease antibody (FMDV type 0); conditions: pig, in vivo
[4] = pig, in vivo; remark: listed apart in the source
H1N1 virus [5] = assay: Body weight change of H1N1-infected mice; format: in vivo; conditions: H1N1-infected ICR mice; for Body weight, Start point (day 0): baseline before oral 20 μg/kg/day; for Body weight as compared to the negative control group / Body weight, End point (day 5): oral 20 μg/kg/day for 5 days; for Body weight, End point (day 5): start point 100.0
H1N1 virus [6] = assay: H1N1 virus content in lung tissue of mice; format: in vivo; conditions: oral 20 μg/kg/day for 5 days; for Tissues virus titers: lung tissue of H1N1-infected ICR mice

Molecule | Body weight, End time [1] | Body weight, Start time [1] | IgG [2] | Antibody titer (PI) [3] | Positive rate [3] | Positive rate for the foot-and-mouth disease antibody [3] | Zinc [4] | Body weight, Start point (day 0) (H1N1 virus [5]) | Body weight as compared to the negative control group (H1N1 virus [5]) | Body weight, End point (day 5) (H1N1 virus [5]) | Tissues virus titers (H1N1 virus [6]) | Body weight as compared to CON 1 and CON 2 [1] | IgG ([2]; hydrate) | Immunoglobulin content in blood as compared to CON 1 and CON 2 ([2]; hydrate) | Production of the foot-and-mouth disease antibody as compared to CON 1 and CON 2 ([3]; hydrate) | Virus content in the lung tissue (H1N1 virus [6]; H1N1-infected ICR mice) | Zinc content in blood as compared to CON 1 and CON 2 [4] | Immunoglobulin content in blood as compared to CON 1 and CON 2 [2] | Production of the foot-and-mouth disease antibody as compared to CON 1 and CON 2 [3]
[O-2].[Zn+2] [CON 1, zinc oxide] | 53.62b | 22.56 | 472b mg/dL | 47.38b | 50 | 50% | 100c μg/dL |  |  |  |  |  |  |  |  |  |  |  | 
O=S(=O)([O-])[O-].[Zn+2] [CON 2, zinc sulfate] | 53.74b | 22.56 | 466b mg/dL | 47.52b | 50 | 50% | 98c μg/dL | 100.0 | decreased body weight | 99.9a | 4.4b Log10 TCID50 |  |  |  |  |  |  |  | 
N[C@@H](CC(=O)[O-])C(=O)[O-].O.[Zn+2] [Example 1-2, zinc aspartate hydrate] |  | 22.56 ^ |  |  |  | 100% |  | 100.0 | did not show significant increase in body weight | 106.8b | 2.1a Log10 TCID50 | slight increase in body weight | 504ab mg/dL and 546a mg/dL | significant increase; also recorded: distinct, although not significant, increase | increased slightly; also recorded: Significant increase | decreased significantly | increased significantly |  | 
zinc-aspartic acid complex [Comparative Example 3] | 54.55a | 22.56 ^ | 489b ^ mg/dL | 54.45b | 75 | 75% |  | 100.0 ^ | did not show significant increase in body weight | 103.7ab | 3.9b Log10 TCID50 | slight increase in body weight |  |  |  |  |  | not significantly different | increased slightly
zinc-aspartic acid complex [Example 1-1] | 54.43ab | 22.56 ^ | 480b mg/dL | 51.88b | 75 | 75% |  | 100.0 ^ | did not show significant increase in body weight | 104.8ab | 4.1b Log10 TCID50 | slight increase in body weight |  |  |  |  |  | not significantly different | increased slightly
